What was measured:
Assay in all cases: Subcutaneous xenograft antitumor activity
Format in all cases: in vivo, mouse
[1] = tested on: HPAC (KRAS^G12D/WT, PDAC) xenograft; conditions: HPAC (25 mg/kg)
Experimental: (§1) To generate subcutaneous CDX, each mouse was inoculated at the right flank with tumor cells (2 × 10^6 − 1 × 10^7) in 100 to 200 µL of media/PBS Supplemented with Matrigel. Treatments were initiated when average tumor volume reached 130 to 200 mm^3 for tumor growth evaluation and 350 to 650 mm^3 for single-dose pharmacokinetic/pharmacodynamic (PK/PD). Tumor diameter was measured in two dimensions using a digital caliper, and the tumor volume in mm^3 was calculated using the formula: Volume = ((width)^2 × length)/2. Mice in the study were weighed and tumors were measured twice weekly.
(§2) Tumor-bearing animals were randomized and assigned into groups (n = 1–10/group). The vehicle at 10 mL/kg or RMC-6236 at indicated doses was administered via oral gavage daily, and animals were treated for 28 days, or up to 90 days if PFS was being assessed. […] For single-dose PKPD study, mice were randomized and assigned into groups (n = 3/dose/time point). A single dose of RMC-6236 was administered orally at either 3, 10, or 25 mg/kg. Blood and tissues, including the tumor, brain, colon, ear skin, and muscle, were harvested at indicated time points. Whole blood was collected in K2EDTA Microtainer tubes, incubated for 5 minutes, and snap-frozen in liquid nitrogen. The tissue was either fixed in 10% formalin or snap-frozen in liquid nitrogen for further analysis.
(§3) In tumor volume plots, the average tumor volume of each group was plotted over the course after implantation (except for PDX models, where the x-axis started on the first day of treatment). Control and RMC-6236 groups were compared by two-way repeated-measures ANOVA on the last measurement day of the control group. Percentage change in body weight for each animal on a given day was determined as [(body weight on test article administration end date/body weight on test article administration start date) −1] × 100. The percentage mean tumor volume change from baseline was graphed in the waterfall plots. The mRECIST score was determined based on % mean tumor volume change, mCR is more than 80% regression, mPR is between 30% and 80% regression, mSD is between 30% growth and 30% regression, mPD is more than 30% growth. Progression is defined as tumor volume doubling from baseline and represented with Kaplan–Meier plots. Log-rank test was used to compare vehicle control with treatment groups. Cox Proportional Hazards models were used to estimate hazard ratios between vehicle control and treatment groups. Tumor relapse was defined here as models that were considered mPR or mCR at the response calling date and then rebounded from mean tumor volume regressions to either stable disease or progression when dosed long-term (more than 60 days).

[2] = tested on: NCI-H358 (KRAS^G12C/WT, NSCLC) xenograft; conditions: NCI-H358 (25 mg/kg)
Experimental: as §1, §2, §3

[3] = tested on: Capan-2 (KRAS^G12V/WT, PDAC) xenograft; conditions: for Tumor Volume: Capan-2 Tumor Volume Data
Experimental: as §1, §2, §3

[4] = tested on: NCI-H441 (KRAS^G12V/WT, NSCLC) xenograft; conditions: for Tumor Volume: NCI-H441 Tumor Volume Data, dose every 24 h
Experimental: as §1, §2, §3

[5] = tested on: NCI-H2122 (KRAS^G12C/G12C, NSCLC) xenograft; conditions: NCI-H2122 (25 mg/kg)
Experimental: as §1, §2, §3

[6] = tested on: KP-4 (KRAS^G12D/WT, PDAC) xenograft; conditions: KP-4 (25 mg/kg)
Experimental: as §1, §2, §3

CCn1c(-c2cc(N3CCN(C)CC3)cnc2[C@H](C)OC)c2c3cc(ccc31)-c1csc(n1)C[C@H](NC(=O)[C@H]1C[C@@H]1C)C(=O)N1CCC[C@H](N1)C(=O)OCC(C)(C)C2 [RMC-6236]
Anti-Tumor Activity (% regression) [1]: 93%
Anti-Tumor Activity (% regression) [2]: 92.97%
Anti-Tumor Activity (% regression) ([3]; Capan-2 (10 mg/kg)): 13%
Anti-Tumor Activity (% regression) ([3]; Capan-2 (25 mg/kg)): 53.0%
mean tumor regression ([3]; Capan-2, 10 mg/kg daily, 4 weeks): 13%
Tumor Volume ([3]; 10mg/kg_Capan2, dose every 24 h, 0 h (baseline)): 166.375 mm^3
Tumor Volume ([3]; 10mg/kg_Capan2, dose every 24 h, 48 h): 174.875 mm^3
Tumor Volume ([3]; 10mg/kg_Capan2, dose every 24 h, 144 h): 156.5 mm^3
Tumor Volume ([3]; 10mg/kg_Capan2, dose every 24 h, 384 h): 177.25 mm^3
Tumor Volume ([3]; 10mg/kg_Capan2, dose every 24 h, 480 h): 157.5 mm^3
Tumor Volume ([3]; 10mg/kg_Capan2, dose every 24 h, 552 h): 152.125 mm^3
Tumor Volume ([3]; 25mg/kg_Capan2, dose every 24 h, 0 h (baseline)): 166.375 mm^3
Tumor Volume ([3]; 25mg/kg_Capan2, dose every 24 h, 48 h): 154.875 mm^3
Tumor Volume ([3]; 25mg/kg_Capan2, dose every 24 h, 144 h): 132.75 mm^3
Tumor Volume ([3]; 25mg/kg_Capan2, dose every 24 h, 384 h): 105 mm^3
Tumor Volume ([3]; 25mg/kg_Capan2, dose every 24 h, 480 h): 90.25 mm^3
Tumor Volume ([3]; 25mg/kg_Capan2, dose every 24 h, 552 h): 86.875 mm^3
Anti-Tumor Activity (% regression) ([4]; NCI-H441 (25 mg/kg)): 88.0%
mean tumor regression ([4]; NCI-H441, 10 mg/kg daily, 4 weeks): 29%
Tumor Volume ([4]; 1mg/kg, 0 h (baseline)): 155.297 mm^3
Tumor Volume ([4]; 1mg/kg, 72 h): 211.748 mm^3
Tumor Volume ([4]; 1mg/kg, 240 h): 488.795 mm^3
Tumor Volume ([4]; 1mg/kg, 336 h): 652.416 mm^3
Tumor Volume ([4]; 1mg/kg, 408 h): 795.041 mm^3
Tumor Volume ([4]; 1mg/kg, 504 h): 1190.95 mm^3
Tumor Volume ([4]; 1mg/kg, 576 h): 1534.52 mm^3
Tumor Volume ([4]; 1mg/kg, […]): 331.176 mm^3
Tumor Volume ([4]; 5mg/kg, 0 h (baseline)): 155.278 mm^3
Tumor Volume ([4]; 5mg/kg, 72 h): 132.554 mm^3
Tumor Volume ([4]; 5mg/kg, 240 h): 165.633 mm^3
Tumor Volume ([4]; 5mg/kg, 336 h): 208.828 mm^3
Tumor Volume ([4]; 5mg/kg, 408 h): 274.14 mm^3
Tumor Volume ([4]; 5mg/kg, 504 h): 284.303 mm^3
Tumor Volume ([4]; 5mg/kg, 576 h): 324.789 mm^3
Tumor Volume ([4]; 5mg/kg, 672 h): 374.96 mm^3
Tumor Volume ([4]; 5mg/kg, […]): 115.114 mm^3
Tumor Volume ([4]; 10mg/kg, 0 h (baseline)): 155.355 mm^3
Tumor Volume ([4]; 10mg/kg, 72 h): 120.95 mm^3
Tumor Volume ([4]; 10mg/kg, 240 h): 80.5583 mm^3
Tumor Volume ([4]; 10mg/kg, 336 h): 79.7939 mm^3
Tumor Volume ([4]; 10mg/kg, 408 h): 102.218 mm^3
Tumor Volume ([4]; 10mg/kg, 504 h): 74.6022 mm^3
Tumor Volume ([4]; 10mg/kg, 576 h): 87.8761 mm^3
Tumor Volume ([4]; 10mg/kg, 672 h): 105.875 mm^3
Tumor Volume ([4]; 10mg/kg, […]): 91.6508 mm^3
Tumor Volume ([4]; 25mg/kg, 0 h (baseline)): 155.304 mm^3
Tumor Volume ([4]; 25mg/kg, 72 h): 113.104 mm^3
Tumor Volume ([4]; 25mg/kg, 240 h): 58.639 mm^3
Tumor Volume ([4]; 25mg/kg, 336 h): 46.9253 mm^3
Tumor Volume ([4]; 25mg/kg, 408 h): 36.776 mm^3
Tumor Volume ([4]; 25mg/kg, 504 h): 29.9204 mm^3
Tumor Volume ([4]; 25mg/kg, 576 h): 27.7701 mm^3
Tumor Volume ([4]; 25mg/kg, 672 h): 19.397 mm^3
Tumor Volume ([4]; 25mg/kg, […]): 78.2002 mm^3
Anti-Tumor Activity, %TGI [5]: 99.64 %TGI
Anti-Tumor Activity (% regression) ([6]; d14): 48.2%
Anti-Tumor Activity, %TGI ([6]; d28): 89.2 % TGI
